Columns and labels:
KHK-C = target: T1, KHK-C (Homo sapiens, UniProt P50053); test: In vitro KHK kinase inhibitory activity test (ADP-Glo); assay type: biochemical; details: 1 nM KHK-C, 100 µM ATP, 200 µM D-Fructose
T1 construct: purchased Origene TP323488
T1 sequence (P50053 1-298): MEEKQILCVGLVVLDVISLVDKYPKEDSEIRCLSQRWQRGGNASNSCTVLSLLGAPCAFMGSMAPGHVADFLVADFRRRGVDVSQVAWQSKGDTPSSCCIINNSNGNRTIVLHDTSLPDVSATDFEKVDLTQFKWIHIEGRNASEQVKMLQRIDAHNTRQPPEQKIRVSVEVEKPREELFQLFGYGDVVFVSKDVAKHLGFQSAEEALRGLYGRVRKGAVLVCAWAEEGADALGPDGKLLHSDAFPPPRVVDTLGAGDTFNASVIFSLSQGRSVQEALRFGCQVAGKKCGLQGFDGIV
Procedure: 1) DMSO was used to prepare the compound of the present invention and a control drug to 10 mM, which was used as a testing stock solution.
2) The compound stock solution of the present invention was diluted 10-fold to 1 mM, and then the compound of the present invention was diluted in gradient 3-fold to 11 concentrations, with the highest concentration of 1 mM. The control drug stock solution was diluted 100-fold to 0.1 mM, and then the control drug was diluted in gradient 3-fold to 11 concentrations, with the highest concentration of 0.1 mM.
3) 0.1 µL of the diluted compound of the present invention and 0.1 µL of the diluted control drug were transferred by using Echo550 to a 384-well plate respectively, with two repeated wells set for each concentration, and centrifuged at 1,000 rpm for 1 min.
1) 5 µL of KHK-C kinase working fluid was added to a 384-well plate, centrifuged at 1,000 rpm for 1 min, and then incubated at a room temperature of 25° C. for 15 min. […]
3) After the reaction was completed, fluorescence value LUM was read on Envision.
Inhibition (% inh) was calculated by using the following equation: […]
IC50 was calculated by curve fitting with software.

[1] = Stability investigation of crystal forms A, B, C, D and the amorphous form of the compound of formula (1) (related substances by HPLC, moisture, XRD, DSC); assay type: physicochemical
Procedure: 2.1 Investigation conditions for the crystal form A of the compound of formula (1): • placed at 105° C. for 5 days, opened, and sampled for testing on day 5; • placed at 60° C. for 10 days, opened/closed, and sampled for testing on day 10; • placed at 25° C. and RH 92.5% for 10 days, opened/closed, and sampled for testing on day 10; • placed at 40° C. and RH 75% for one month, opened/closed, and sampled for testing on the last day of the month; and • under illumination, employing a closed way (polyethylene bag + composite film bag) to meet illumination requirements, and sampled for testing.
Illumination requirements: ICH Q1B Stability Testing: Photostability Testing of New Drug Substances and Products.
Determination of related substances: determined according to 0512 HPLC in General Principle (Volume IV) of Chinese Pharmacopoeia (2015 Version).
Moisture determination: determined according to 2 Coulometric Titration in the First Method (Karl Fischer titration) of 0832 Moisture Determination Method in General Principle (Volume IV) of Chinese Pharmacopoeia (2015 Version).
XRD determination: determined according to the Second Method-Powder X-ray Diffraction Method of 0451 X-ray Diffraction Method in General Principle (Volume IV) of Chinese Pharmacopoeia (2015 Version).
DSC determination: precisely weighing an appropriate amount of sample in a Standard disc, covering the Standard disc, placing the Standard disc in a sample disc position in a DSC furnace, placing a blank disc of the same type in a reference position, and carrying out the following temperature rise program:
1. Equilibrate at 25° C.; and
2.1 Investigation conditions for the crystal form B of the compound of formula (1): • placed at 105° C. for 5 days, opened, and sampled for testing on day 5; • placed at 60° C. for 10 days, opened/closed, and sampled for testing on day 10; • placed at 25° C. and RH 92.5% for 10 days, opened/closed, and sampled for testing on day 10; • placed at 40° C. and RH 75% for one month, opened/closed, and sampled for testing on the last day of the month; and • under illumination, employing a closed way (polyethylene bag + composite film bag) to meet illumination requirements, and sampled for testing.
2.1 Investigation conditions for the crystal form C of the compound of formula (1): • placed at 105° C. for 5 days, opened, and sampled for testing on day 5; • placed at 60° C. for 10 days, opened/closed, and sampled for testing on day 10; • placed at 25° C. and RH 92.5% for 10 days, opened/closed, and sampled for testing on day 10; • placed at 40° C. and RH 75% for one month, opened/closed, and sampled for testing on the last day of the month; and • under illumination, employing a closed way (polyethylene bag + composite film bag) to meet illumination requirements, and sampled for testing.
1. Equilibrate at 25° C.; and 2. Ramp 10° C. to 200° C.
2.1 Investigation conditions for the crystal form D of the compound of formula (1): • placed at 105° C. for 5 days, opened, and sampled for testing on day 5; • placed at 60° C. for 10 days, opened/closed, and sampled for testing on day 10; • placed at 25° C. and RH 92.5% for 10 days, opened/closed, and sampled for testing on day 10; • placed at 40° C. and RH 75% for one month, opened/closed, and sampled for testing on the last day of the month; and • under illumination, employing a closed way (polyethylene bag + composite film bag) to meet illumination requirements, and sampled for testing.
2.1 Investigation conditions for the amorphous form of the compound of formula (1): • placed at 60° C. for 10 days, opened/closed, and sampled for testing on day 10; • placed at 25° C. and RH 92.5% for 10 days, opened/closed, and sampled for testing on day 10; • placed at 40° C. and RH 75% for one month, opened/closed, and sampled for testing on the last day of the month; and • under illumination, employing a closed way (polyethylene bag + composite film bag) to meet illumination requirements, and sampled for testing.

[2] = 25° C., RH 92.5%, closed, 10 days
[3] = 25° C., RH 92.5%, opened, 10 days

Compound: C[C@H]1CCN1c1nc(N2C[C@@H]3[C@@H](CC(=O)O)[C@@H]3C2)c2c(n1)C(F)(F)CC2 [Compound of formula (1), 2-((1R,5S,6R)-3-(7,7-difluoro-2-((S)-2-methylazetidin-1-yl)-6,7-dihydro-5H-cyclopenta[d]pyrimidin-4-yl)-3-azabicyclo[3.1.0]hexan-6-yl)acetic acid]
- IC50 (KHK-C): 0.82 nM

Compound: C[C@H]1CCN1c1nc(N2C[C@@H]3[C@@H](CC(=O)O)[C@@H]3C2)c2c(n1)C(F)(F)CC2 [Crystal form C, 2-((1R,5S,6R)-3-(7,7-difluoro-2-((S)-2-methylazetidin-1-yl)-6,7-dihydro-5H-cyclopenta[d]pyrimidin-4-yl)-3-azabicyclo[3.1.0]hexan-6-yl)acetic acid]
- DSC ([1]; 0 day): 172.44 °C
- Moisture % ([1]; 0 day): 0.24%
- Total related % ([1]; 0 day): 1.25%
- Trait ([1]; 0 day): Off-white power
- DSC [1, 2]: 172.36 °C
- Moisture % [1, 2]: 0.09%
- Total related % [1, 2]: 1.06%
- Trait [1, 2]: Off-white power
- XRD [1, 2]: Same as day 0
- DSC [1, 3]: 172.35 °C
- Moisture % [1, 3]: 0.11%
- Total related % [1, 3]: 1.07%
- Trait [1, 3]: Off-white power
- XRD [1, 3]: Same as day 0
- DSC ([1]; 40° C., RH 75%, closed, 1 M): 172.36 °C
- Moisture % ([1]; 40° C., RH 75%, closed, 1 M): 0.19%
- Total related % ([1]; 40° C., RH 75%, closed, 1 M): 1.30%
- Trait ([1]; 40° C., RH 75%, closed, 1 M): Off-white power
- XRD ([1]; 40° C., RH 75%, closed, 1 M): Same as day 0
- DSC ([1]; 40° C., RH 75%, opened, 1 M): 172.35 °C
- Moisture % ([1]; 40° C., RH 75%, opened, 1 M): 0.13%
- Total related % ([1]; 40° C., RH 75%, opened, 1 M): 1.31%
- Trait ([1]; 40° C., RH 75%, opened, 1 M): Off-white power
- XRD ([1]; 40° C., RH 75%, opened, 1 M): Same as day 0
- DSC ([1]; 60° C., closed, 10 days): 172.21 °C
- Moisture % ([1]; 60° C., closed, 10 days): 0.08%
- Total related % ([1]; 60° C., closed, 10 days): 2.20%
- Trait ([1]; 60° C., closed, 10 days): Off-white power
- XRD ([1]; 60° C., closed, 10 days): Same as day 0
- DSC ([1]; 60° C., opened, 10 days): 172.21 °C
- Moisture % ([1]; 60° C., opened, 10 days): 0.08%
- Total related % ([1]; 60° C., opened, 10 days): 2.09%
- Trait ([1]; 60° C., opened, 10 days): Off-white power
- XRD ([1]; 60° C., opened, 10 days): Same as day 0
- Total related substances, change ([1]; 105° C. for 5 days and 60° C. for 10 days): slightly increased
- DSC ([1]; 105° C., opened, 5 days): 171.85 °C
- Moisture % ([1]; 105° C., opened, 5 days): 0.24%
- Total related % ([1]; 105° C., opened, 5 days): 1.77%
- Trait ([1]; 105° C., opened, 5 days): Off-white power
- XRD ([1]; 105° C., opened, 5 days): Same as day 0
- DSC ([1]; Avoid light for 18 days): 172.42 °C
- Moisture % ([1]; Avoid light for 18 days): 0.13%
- Total related % ([1]; Avoid light for 18 days): 1.25%
- Trait ([1]; Avoid light for 18 days): Off-white power
- XRD ([1]; Avoid light for 18 days): Same as day 0
- Related substances, content, moisture, and XRD stability ([1]; opened/closed, 25° C. and RH 92.5% for 10 days, 40° C. and RH 75% for one month): good

Compound: C[C@H]1CCN1c1nc(N2C[C@@H]3[C@@H](CC(=O)O)[C@@H]3C2)c2c(n1)C(F)(F)CC2 [Crystal form D, 2-((1R,5S,6R)-3-(7,7-difluoro-2-((S)-2-methylazetidin-1-yl)-6,7-dihydro-5H-cyclopenta[d]pyrimidin-4-yl)-3-azabicyclo[3.1.0]hexan-6-yl)acetic acid]
- DSC ([1]; 0 day): 167.79 °C
- Moisture % ([1]; 0 day): 0.066%
- Total related % ([1]; 0 day): 0.37%
- Trait ([1]; 0 day): Off-white power
- DSC [1, 2]: 167.46 °C
- Moisture % [1, 2]: 0.092%
- Total related % [1, 2]: 0.38%
- Trait [1, 2]: Off-white power
- XRD [1, 2]: Same as day 0
- DSC [1, 3]: 167.51 °C
- Moisture % [1, 3]: 0.048%
- Total related % [1, 3]: 0.38%
- Trait [1, 3]: Off-white power
- XRD [1, 3]: Same as day 0
- DSC ([1]; 40° C., RH 75%, closed, 1 M): 167.77 °C
- Moisture % ([1]; 40° C., RH 75%, closed, 1 M): 0.065%
- Total related % ([1]; 40° C., RH 75%, closed, 1 M): 0.38%
- Trait ([1]; 40° C., RH 75%, closed, 1 M): Off-white power
- XRD ([1]; 40° C., RH 75%, closed, 1 M): Same as day 0
- DSC ([1]; 40° C., RH 75%, opened, 1 M): 167.75 °C
- Moisture % ([1]; 40° C., RH 75%, opened, 1 M): 0.12%
- Total related % ([1]; 40° C., RH 75%, opened, 1 M): 0.39%
- Trait ([1]; 40° C., RH 75%, opened, 1 M): Off-white power
- XRD ([1]; 40° C., RH 75%, opened, 1 M): Same as day 0
- DSC ([1]; 60° C., closed, 10 days): 167.43 °C
- Moisture % ([1]; 60° C., closed, 10 days): 0.089%
- Total related % ([1]; 60° C., closed, 10 days): 0.40%
- Trait ([1]; 60° C., closed, 10 days): Off-white power
- XRD ([1]; 60° C., closed, 10 days): Same as day 0
- DSC ([1]; 60° C., opened, 10 days): 167.41 °C
- Moisture % ([1]; 60° C., opened, 10 days): 0.079%
- Total related % ([1]; 60° C., opened, 10 days): 0.41%
- Trait ([1]; 60° C., opened, 10 days): Off-white power
- XRD ([1]; 60° C., opened, 10 days): Same as day 0
- DSC ([1]; 105° C., opened, 5 days): 167.19 °C
- Moisture % ([1]; 105° C., opened, 5 days): 0.045%
- Total related % ([1]; 105° C., opened, 5 days): 0.51%
- Trait ([1]; 105° C., opened, 5 days): Off-white power
- XRD ([1]; 105° C., opened, 5 days): Same as day 0
- DSC ([1]; Avoid light for 18 days): 167.49 °C
- Moisture % ([1]; Avoid light for 18 days): 0.048%
- Total related % ([1]; Avoid light for 18 days): 0.38%
- Trait ([1]; Avoid light for 18 days): Off-white power
- XRD ([1]; Avoid light for 18 days): Same as day 0
- Stability, testing conclusion ([1]; under the above conditions (all placement conditions of the study)): relatively stable
